Earlier results on 1 molecule are cited in patent US11571414B2, “Methods of treating respiratory illnesses, alleviating inflammation and visceral pain, and alleviating opioid addiction while suppressing withdrawal symptoms” (priority 2019, dated 2023).

Each structure is given as a SMILES string.

For the data set, the system named is μ-opioid receptor and the nociception receptor. The following applies: nonhuman primates.

`CC(C)C1CCC(N2CCC3(CC2)C(=O)N(CCNS(N)(=O)=O)Cc2ccccc23)CC1` (centres unmarked) [AT-121]: the addictive effects entry is reported as “suppresses the addictive effects” and the analgesic effects result was “morphine-like analgesic effects”.
